Test results from patent US20260167619A2, “INDOLINE COMPOUNDS AND DERIVATIVES AS EGFR INHIBITORS” (BeOne Medicines I GmbH, priority 2020, published 2026).

Assays:
[1] = molecular target: EGFR(Dell9_T790M_C797S) (aa 669-1210, in house) (Homo sapiens, UniProt P00533, T790M/C797S, form not given); assay: Biochemical EGFR inhibition assay (TR-FRET), Del19/T790M/C797S mutant; conditions: ATP at Km, 15 min pre-incubation, 60 min reaction; read-out: Del_TM_CS (Km ATP) IC50
Summary of the method: (§1)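 ATP at Km; biotin-poly GT substrate; HEPES pH7.5/MgCl2/DTT buffer; 15 min compound preincubation, 60 min reaction, RT. Eu/XL665 HTRF readout, 665/620 ratio; 4-parameter IC50.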

[2] = molecular target: T1, EGFR(L858R_T790M_C797S) (aa695-end, Invitrogen) (Homo sapiens, UniProt P00533, C797S/L858R/T790M); assay: Biochemical EGFR inhibition assay (TR-FRET), L858R/T790M/C797S mutant; conditions: ATP at Km, 15 min pre-incubation, 60 min reaction; read-out: LR_TM_CS (Km ATP) IC50
T1 construct: purchased Invitrogen
Summary of the method: as §1

BaF3-Del_TM_CS cells = BaF3-Del_TM_CS cells (Homo sapiens, UniProt P00533, T790M/C797S, cells depend on it, form not given); assay: Cell antiproliferation assay (CellTiter-Glo), BaF3-Del_TM_CS; assay type: cell-based; conditions: 48 h treatment, read-out: BaF3-Del_TM_CS IC50
Chain of BaF3-Del_TM_CS cells (P00533 with tags, fused parts or gaps DEL746-750/T790M/C797S, form open): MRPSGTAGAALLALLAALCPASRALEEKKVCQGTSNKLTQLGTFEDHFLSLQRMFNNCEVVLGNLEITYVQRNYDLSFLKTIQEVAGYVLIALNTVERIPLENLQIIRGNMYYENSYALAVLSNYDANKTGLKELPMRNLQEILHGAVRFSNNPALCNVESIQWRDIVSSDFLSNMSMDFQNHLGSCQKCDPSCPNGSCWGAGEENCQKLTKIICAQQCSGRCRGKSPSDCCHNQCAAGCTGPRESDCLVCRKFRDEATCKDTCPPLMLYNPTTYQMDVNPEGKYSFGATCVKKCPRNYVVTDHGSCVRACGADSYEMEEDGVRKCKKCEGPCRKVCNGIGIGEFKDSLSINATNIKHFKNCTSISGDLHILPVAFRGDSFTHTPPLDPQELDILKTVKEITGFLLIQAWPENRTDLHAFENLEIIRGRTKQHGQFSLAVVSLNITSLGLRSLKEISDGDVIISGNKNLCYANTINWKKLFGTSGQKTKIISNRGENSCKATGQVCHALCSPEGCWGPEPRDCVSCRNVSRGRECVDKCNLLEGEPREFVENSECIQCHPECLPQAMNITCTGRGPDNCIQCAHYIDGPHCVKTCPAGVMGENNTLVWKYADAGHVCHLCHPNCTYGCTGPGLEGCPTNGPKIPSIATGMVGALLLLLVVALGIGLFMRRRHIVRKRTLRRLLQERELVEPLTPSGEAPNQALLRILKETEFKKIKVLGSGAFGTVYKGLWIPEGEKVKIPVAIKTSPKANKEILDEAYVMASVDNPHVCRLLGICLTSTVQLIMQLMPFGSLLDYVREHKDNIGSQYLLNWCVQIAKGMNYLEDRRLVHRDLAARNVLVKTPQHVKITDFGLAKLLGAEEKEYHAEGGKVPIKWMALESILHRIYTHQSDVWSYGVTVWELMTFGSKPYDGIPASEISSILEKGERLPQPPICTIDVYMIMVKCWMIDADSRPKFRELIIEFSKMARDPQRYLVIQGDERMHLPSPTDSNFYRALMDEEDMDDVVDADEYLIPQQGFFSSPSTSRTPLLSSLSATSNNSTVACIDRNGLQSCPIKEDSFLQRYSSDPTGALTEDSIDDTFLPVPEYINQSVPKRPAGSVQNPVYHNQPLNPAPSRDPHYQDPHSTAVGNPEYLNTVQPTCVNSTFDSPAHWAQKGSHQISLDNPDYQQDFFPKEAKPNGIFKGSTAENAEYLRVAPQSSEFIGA
Summary of the method: (§2)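 Viability read as CellTiter-Glo luminescence after 48 h compound treatment at 0.2% DMSO final. Eight concentrations, 5-fold steps, made as 500× DMSO stocks starting at 5 mM. Percent inhibition curve-fitted (Hill slope, top, bottom) to give IC50.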

BaF3-LR_TM_CS cells = BaF3-LR_TM_CS cells (Homo sapiens, UniProt P00533, T790M/C797S/L858R, cells depend on it); assay: Cell antiproliferation assay (CellTiter-Glo), BaF3-LR_TM_CS; assay type: cell-based; conditions: 48 h treatment, read-out: BaF3-LR_TM_CS IC50
Chain of BaF3-LR_TM_CS cells (P00533 whole entry T790M/C797S/L858R): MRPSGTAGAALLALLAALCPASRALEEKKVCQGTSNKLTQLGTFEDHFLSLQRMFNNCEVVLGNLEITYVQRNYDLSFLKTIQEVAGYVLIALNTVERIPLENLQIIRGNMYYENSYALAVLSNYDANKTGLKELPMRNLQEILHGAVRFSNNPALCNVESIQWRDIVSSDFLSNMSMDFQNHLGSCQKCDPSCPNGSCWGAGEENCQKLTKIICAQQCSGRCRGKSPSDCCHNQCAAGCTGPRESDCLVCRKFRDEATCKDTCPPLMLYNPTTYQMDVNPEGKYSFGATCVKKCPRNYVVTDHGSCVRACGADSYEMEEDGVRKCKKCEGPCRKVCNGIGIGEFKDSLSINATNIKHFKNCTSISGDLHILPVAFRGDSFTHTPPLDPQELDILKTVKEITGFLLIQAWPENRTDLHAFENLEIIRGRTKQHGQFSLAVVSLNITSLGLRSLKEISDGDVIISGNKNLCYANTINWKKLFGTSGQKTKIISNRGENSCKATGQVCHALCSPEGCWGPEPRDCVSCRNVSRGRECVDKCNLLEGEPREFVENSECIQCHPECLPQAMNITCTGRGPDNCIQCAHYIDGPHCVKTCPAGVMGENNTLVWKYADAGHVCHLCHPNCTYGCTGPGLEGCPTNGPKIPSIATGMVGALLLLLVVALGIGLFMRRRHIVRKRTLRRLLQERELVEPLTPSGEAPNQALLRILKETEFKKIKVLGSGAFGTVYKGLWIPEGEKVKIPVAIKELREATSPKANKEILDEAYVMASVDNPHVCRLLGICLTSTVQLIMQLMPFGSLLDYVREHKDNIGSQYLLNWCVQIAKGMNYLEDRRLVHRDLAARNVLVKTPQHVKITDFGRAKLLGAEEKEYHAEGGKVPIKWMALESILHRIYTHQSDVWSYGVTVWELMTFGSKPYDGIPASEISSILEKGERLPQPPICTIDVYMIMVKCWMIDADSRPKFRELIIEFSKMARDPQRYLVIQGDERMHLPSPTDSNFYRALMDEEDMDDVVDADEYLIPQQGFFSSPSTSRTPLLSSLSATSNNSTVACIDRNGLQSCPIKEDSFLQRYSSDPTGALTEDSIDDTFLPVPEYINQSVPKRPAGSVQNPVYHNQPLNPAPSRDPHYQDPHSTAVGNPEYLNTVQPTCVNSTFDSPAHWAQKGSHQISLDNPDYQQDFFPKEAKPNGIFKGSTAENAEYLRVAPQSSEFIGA
Summary of the method: as §2

BaF3-WT cells = BaF3-WT cells (Homo sapiens, UniProt P00533); assay: Cell antiproliferation assay (CellTiter-Glo), BaF3-WT; assay type: cell-based; conditions: 48 h treatment, read-out: BaF3-WT IC50
Chain of BaF3-WT cells (P00533 whole entry, change not shown): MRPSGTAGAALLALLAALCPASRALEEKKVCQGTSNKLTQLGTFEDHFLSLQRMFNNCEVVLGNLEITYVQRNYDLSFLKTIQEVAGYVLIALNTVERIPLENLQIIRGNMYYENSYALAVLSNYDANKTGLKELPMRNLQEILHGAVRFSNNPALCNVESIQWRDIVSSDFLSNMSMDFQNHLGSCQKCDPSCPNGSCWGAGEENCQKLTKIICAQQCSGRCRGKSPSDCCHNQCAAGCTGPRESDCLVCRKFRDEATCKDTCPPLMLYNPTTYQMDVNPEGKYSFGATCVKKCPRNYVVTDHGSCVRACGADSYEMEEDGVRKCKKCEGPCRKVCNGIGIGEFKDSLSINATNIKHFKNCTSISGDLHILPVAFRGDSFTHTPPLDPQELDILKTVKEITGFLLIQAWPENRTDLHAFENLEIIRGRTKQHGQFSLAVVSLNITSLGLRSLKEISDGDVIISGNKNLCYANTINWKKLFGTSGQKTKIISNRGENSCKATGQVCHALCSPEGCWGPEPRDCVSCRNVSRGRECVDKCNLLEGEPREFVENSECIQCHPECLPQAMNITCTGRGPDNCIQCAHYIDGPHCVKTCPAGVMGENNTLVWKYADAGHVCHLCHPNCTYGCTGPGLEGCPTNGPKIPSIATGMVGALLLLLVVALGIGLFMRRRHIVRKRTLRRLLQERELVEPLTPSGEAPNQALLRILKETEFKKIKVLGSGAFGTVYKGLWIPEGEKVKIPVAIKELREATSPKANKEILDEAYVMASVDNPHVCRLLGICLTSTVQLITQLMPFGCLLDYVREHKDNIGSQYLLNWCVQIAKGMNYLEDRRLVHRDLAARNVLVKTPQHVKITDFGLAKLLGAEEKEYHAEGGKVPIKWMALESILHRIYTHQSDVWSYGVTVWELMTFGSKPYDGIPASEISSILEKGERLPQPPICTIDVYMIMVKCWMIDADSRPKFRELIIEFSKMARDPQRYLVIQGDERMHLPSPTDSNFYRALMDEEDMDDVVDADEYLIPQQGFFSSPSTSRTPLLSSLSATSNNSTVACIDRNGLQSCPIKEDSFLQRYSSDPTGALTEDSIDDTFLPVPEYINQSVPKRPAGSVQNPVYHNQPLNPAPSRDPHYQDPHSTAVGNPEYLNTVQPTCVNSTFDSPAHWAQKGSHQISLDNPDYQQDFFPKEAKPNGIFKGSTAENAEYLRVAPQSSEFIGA
Summary of the method: as §2

[3] = molecular target: T2, EGFR (aa668-1210, Invitrogen) (Homo sapiens, UniProt P00533); assay: Biochemical EGFR inhibition assay (TR-FRET), wild-type EGFR; conditions: ATP at Km, 15 min pre-incubation, 60 min reaction; read-out: WT (Km ATP) IC50
T2 construct: EGFR (aa668-1210, Invitrogen); purchased Invitrogen
Summary of the method: as §1

Chain of EGFR(Dell9_T790M_C797S) (aa 669-1210, in house) (P00533 with tags, fused parts or gaps DEL746-750/T790M/C797S, form open): as the sequence (P00533 with tags, fused parts or gaps DEL746-750/T790M/C797S, form open) above

Structure (SMILES) | IC50 [1] [µM] | IC50 [2] [µM] | GI50 (BaF3-Del_TM_CS cells) [µM] | GI50 (BaF3-LR_TM_CS cells) [µM] | GI50 (BaF3-WT cells) [µM] | IC50 [3] [µM]
COc1cc(N2CCC3(CC2)CN(C)C3)c(C)cc1Nc1nc(Nc2cccc3c2N(S(C)(=O)=O)CC3)c2cc[nH]c2n1 [Example 100, N^2-(2-methoxy-5-methyl-4-(2-methyl-2,7-diazaspiro[3.5]nonan-7-yl)phenyl)-N^4-(1-(methylsulfonyl)indolin-7-yl)-7H-pyrrolo[2,3-d]pyrimidine-2,4-diamine] | 0.001 | 0.00092 | 0.0399 | 0.116 | 1.59 | 0.049
COc1cc(C2CCN(CCO)CC2)c(C)cc1Nc1nc(Nc2cccc3c2N(S(C)(=O)=O)CC3)c2cc[nH]c2n1 [Example 108, 2-(4-(5-methoxy-2-methyl-4-((4-((1-(methylsulfonyl)indolin-7-yl)amino)-7H-pyrrolo[2,3-d]pyrimidin-2-yl)amino)phenyl)piperidin-1-yl)ethan-1-ol] | 0.0022 | 0.0019 | 0.181 | 0.465 | 2.14 | 0.104
CCCS(=O)(=O)N1CCc2cccc(Nc3nc(Nc4ccc(N5CCC(N6CCN(C)CC6)CC5)cc4OC)ncc3Cl)c21 [Example 6, 5-chloro-N^2-(2-methoxy-4-(4-(4-methylpiperazin-1-yl)piperidin-1-yl)phenyl)-N^4-(1-(propylsulfonyl)indolin-7-yl)pyrimidine-2,4-diamine] | 0.0051 | 0.0018 | 0.233 | 0.221 | 1.85 | 0.0081
CN1CCN(c2ccc(Nc3nc(Nc4cccc5c4N(S(C)(=O)=O)CC5)c4cc[nH]c4n3)c(F)c2F)CC1 [Example 85, N^2-(2,3-difluoro-4-(4-methylpiperazin-1-yl)phenyl)-N^4-(1-(methylsulfonyl)indolin-7-yl)-7H-pyrrolo[2,3-d]pyrimidine-2,4-diamine] | 0.015 | 0.0089 | 0.0916 | 0.141 | 0.274 | 1.3
COc1cc(N2CCC(N3CCN(C)CC3)CC2)c(C)cc1Nc1nc(Nc2cccc3c2N(S(C)(=O)=O)CC3)c2cc[nH]c2n1 [Example 91, N^2-(2-methoxy-5-methyl-4-(4-(4-methylpiperazin-1-yl)piperidin-1-yl)phenyl)-N^4-(1-(methylsulfonyl)indolin-7-yl)-7H-pyrrolo[2,3-d]pyrimidine-2,4-diamine] | 0.00094 | 0.00042 | 0.0128 | 0.0405 | 0.949 | 0.017
CCN1CCN(C2CCN(c3ccc(Nc4nc(Nc5ccc(F)c6c5N(S(C)(=O)=O)CC65CCC5)c5cc[nH]c5n4)cc3F)CC2)CC1 [Example 83, N^2-(4-(4-(4-ethylpiperazin-1-yl)piperidin-1-yl)-3-fluorophenyl)-N^4-(4′-fluoro-1′-(methylsulfonyl)spiro[cyclobutane-1,3′-indolin]-7′-yl)-7H-pyrrolo[2,3-d]pyrimidine-2,4-diamine] | 0.037 | 0.042 | 0.707 | 1.04 | 1.86 | 7.29
COc1cc(N2CCC(N3CCN(C)CC3)CC2)ccc1Nc1ncc(Cl)c(Nc2cccc3c2N(S(C)(=O)=O)C(C)C3)n1 (stereo not drawn) [Example 18, 5-chloro-N^2-(2-methoxy-4-(4-(4-methylpiperazin-1-yl)piperidin-1-yl)phenyl)-N^4-(2-methyl-1-(methylsulfonyl)indolin-7-yl)pyrimidine-2,4-diamine] | 0.00068 | 0.0004 | 0.00747 | 0.0165 | 0.422 | 0.0023
COc1cc(N2CCC(N3CCN(C)CC3)CC2)ccc1Nc1ncc(Cl)c(Nc2cccc3c2N(C(=O)N(C)C)CC3)n1 [Example 15, 7-((5-chloro-2-((2-methoxy-4-(4-(4-methylpiperazin-1-yl)piperidin-1-yl)phenyl)amino)pyrimidin-4-yl)amino)-N,N-dimethylindoline-1-carboxamide] | 2.2 | 0.369 | 1.8 | 2.03 | 4.12 | 1.36
CCc1cc(Nc2nc(Nc3cccc4c3N(S(C)(=O)=O)CC4)c3cc[nH]c3n2)c(OC)cc1N1CCC(N2CCN(C)CC2)CC1 [Example 94, N^2-(5-ethyl-2-methoxy-4-(4-(4-methylpiperazin-1-yl)piperidin-1-yl)phenyl)-N^4-(1-(methylsulfonyl)indolin-7-yl)-7H-pyrrolo[2,3-d]pyrimidine-2,4-diamine] | 0.0015 | 0.0011 | 0.0109 | 0.0848 | 0.64 | 0.029

Compounds with a lower IC50 [1], results first:

IC50 [1] [µM] | IC50 [2] [µM] | GI50 (BaF3-Del_TM_CS cells) [µM] | GI50 (BaF3-LR_TM_CS cells) [µM] | GI50 (BaF3-WT cells) [µM] | IC50 [3] [µM] | Structure (SMILES)
0.00036 | 0.00021 | 0.00156 | 0.00491 | 0.23 | 0.00078 | COc1cc(N2CCC(N3CCN(C)CC3)CC2)c(C)cc1Nc1ncc(Br)c(Nc2cccc3c2N(S(C)(=O)=O)CC3)n1 [Example 40, 5-bromo-N^2-(2-methoxy-5-methyl-4-(4-(4-methylpiperazin-1-yl)piperidin-1-yl)phenyl)-N^4-(1-(methylsulfonyl)indolin-7-yl)pyrimidine-2,4-diamine]
0.00045 | 0.00095 | 0.0193 | 0.0793 | 1.51 | 0.0038 | CN1CCN(C2CCN(c3ccc(Nc4ncc(Cl)c(Nc5cccc6c5N(S(C)(=O)=O)CC6)n4)c4c3CCO4)CC2)CC1 [Example 49, 5-chloro-N^2-(4-(4-(4-methylpiperazin-1-yl)piperidin-1-yl)-2,3-dihydrobenzofuran-7-yl)-N^4-(1-(methylsulfonyl)indolin-7-yl)pyrimidine-2,4-diamine]
0.00019 | 0.0008 | 0.0101 | 0.0359 | 0.235 | 0.0042 | CN(C)C1CCN(c2ccc(Nc3ncc(Cl)c(Nc4cccc5c4N(S(C)(=O)=O)CC5)n3)c3c2OCO3)CC1 [Example 51, 5-chloro-N2-(7-(4-(dimethylamino)piperidin-1-yl)benzo[d][1,3]dioxol-4-yl)-N4-(1-(methylsulfonyl)indolin-7-yl)pyrimidine-2,4-diamine]
0.00012 | 0.00042 | 0.0112 | 0.0187 | 0.145 | 0.0055 | CN(C)C1CCN(c2ccc(Nc3ncc(Br)c(Nc4cccc5c4N(S(C)(=O)=O)CC5)n3)c3c2OCO3)CC1 [Example 52, 5-bromo-N^2-(7-(4-(dimethylamino)piperidin-1-yl)benzo[d][1,3]dioxol-4-yl)-N^4-(1-(methylsulfonyl)indolin-7-yl)pyrimidine-2,4-diamine]
0.00039 | 0.0015 | 0.046 | 0.143 | 1.87 | 0.0026 | COc1cc(N2CCC(N3CCN(C)CC3)CC2)ccc1Nc1ncc(Cl)c(Nc2cccc3c2N(S(C)(=O)=O)CCC3)n1 [Example 10, 5-chloro-N^2-(2-methoxy-4-(4-(4-methylpiperazin-1-yl)piperidin-1-yl)phenyl)-N^4-(1-(methylsulfonyl)-1,2,3,4-tetrahydroquinolin-8-yl)pyrimidine-2,4-diamine]
0.00022 | 0.00041 | 0.01 | 0.0259 | 0.414 | 0.00056 | COc1cc(N2CCC(N(C)C)CC2)ccc1Nc1ncc(Cl)c(Nc2cccc3c2N(S(C)(=O)=O)CC3)n1 [Example 36, 5-chloro-N^2-(4-(4-(dimethylamino)piperidin-1-yl)-2-methoxyphenyl)-N^4-(1-(methylsulfonyl)indolin-7-yl)pyrimidine-2,4-diamine]
0.00018 | 0.0003 | 0.00356 | 0.0305 | 0.361 | 0.0044 | CN(C)C1CCN(c2ccc(Nc3ncc(Br)c(Nc4cccc5c4N(S(C)(=O)=O)CC5)n3)c3c2CCO3)CC1 [Example 48, 5-bromo-N^2-(4-(4-(dimethylamino)piperidin-1-yl)-2,3-dihydrobenzofuran-7-yl)-N^4-(1-(methylsulfonyl)indolin-7-yl)pyrimidine-2,4-diamine]
0.00013 | 0.0001 | 0.0482 | 0.152 | 0.635 | 0.00055 | COc1cc(N2CCC(N3CCN(C)CC3)CC2)ccc1Nc1ncc(Cl)c(Nc2ccc(F)c3c2N(S(C)(=O)=O)CC3)n1 [Example 1, 5-chloro-N^4-(4-fluoro-1-(methylsulfonyl)indolin-7-yl)-N^2-(2-methoxy-4-(4-(4-methylpiperazin-1-yl)piperidin-1-yl)phenyl)pyrimidine-2,4-diamine]
